The values that follow come from ChEMBL document CHEMBL1153187 (Bioorg Med Chem Lett, 2010).

The subject of data set [1] is Leishmania amazonensis. In words: Antileishmanial activity against Leishmania amazonensis MHOM/BR/76/LTB-012 axenic amastigotes by MTT assay.
The subject of data set [2] is Leishmania amazonensis. The data set is described as follows: Antileishmanial activity against Leishmania amazonensis LMA CL1 amastigotes infected in mouse macrophage by MTT assay. Format: functional, organism-based. (Formazan colour is commonly taken as a measure of viable cells.)
Data set [3] has as its system Leishmania peruviana. The data set is described as follows: Antileishmanial activity against Leishmania peruviana MHOM/PE/LCA08 promastigotes infected in mouse macrophage by MTT assay. Type of data set: functional, organism-based.
The test system of data set [4] is Leishmania braziliensis. In words: Antileishmanial activity against Leishmania braziliensis MHOM/PE/PER006 promastigotes infected in mouse macrophage by MTT assay. Type of data set: functional, organism-based.
The nature of data set [5]: Selectivity index, ratio of IC50 for BALB/c macrophages to IC50 for Leishmania amazonensis (MHOM/BR/76/LTB-012).
Data set [6] in a line: Toxicity against BALB/c mouse macrophage by MTT assay. Format: cell-based. The following applies: mouse macrophages.
Data set [7] deals with Leishmania amazonensis. In words: Antileishmanial activity against Leishmania amazonensis LV79 MPRO/BR/72/M1841 infected in BALB/c mouse assessed as lesion diameter at 5 mg/kg after 4 weeks. Format: functional.
The test system of data set [8] is Leishmania amazonensis. In words: Antileishmanial activity against Leishmania amazonensis LV79 MPRO/BR/72/M1841 infected in BALB/c mouse assessed as reduction in parasite burden at 5 mg/kg after 6 weeks. Format: functional. Also noted: scale not given: the % may be the effect or the level left.
Data set [9] has as its system Leishmania amazonensis. The data set is described as follows: Antileishmanial activity against Leishmania amazonensis LV79 MPRO/BR/72/M1841 infected in BALB/c mouse assessed as reduction in parasite burden at 5 mg/kg after 4 weeks. Type of data set: functional. Also noted: scale not given: the % may be the effect or the level left.
For data set [10], the system named is Leishmania amazonensis. In words: Antileishmanial activity against Leishmania amazonensis LV79 MPRO/BR/72/M1841 infected in BALB/c mouse assessed as reduction in parasite burden at 33 mg/kg after 4 weeks. Format: functional, organism-based. Also noted: dose 33 mg/kg; scale not given: the % may be the effect or the level left.
Data set [11] relates to Leishmania amazonensis. The data set is described as follows: Antileishmanial activity against Leishmania amazonensis LV79 MPRO/BR/72/M1841 infected in BALB/c mouse assessed as reduction in parasite burden at 33 mg/kg after 7 weeks. Type of data set: functional, organism-based. Also noted: dose 33 mg/kg; scale not given: the % may be the effect or the level left.
Data set [12] concerns Leishmania amazonensis. In words: Antileishmanial activity against Leishmania amazonensis LV79 MPRO/BR/72/M1841 infected in BALB/c mouse assessed as lesion diameter at 33 mg/kg after 4 weeks. Format: functional, organism-based. More on the design: dose 33 mg/kg.

In general, IC50 refers to the concentration at which inhibition is half-maximal. Turning to `C[C@@H]1[C@H](O)[C@@H](C)/C=C/C=C/C=C/C=C/C=C/C=C/C=C/[C@H](O[C@@H]2O[C@H](C)[C@@H](O)[C@H](N)[C@@H]2O)C[C@@H]2O[C@](O)(C[C@@H](O)C[C@@H](O)[C@H](O)CC[C@@H](O)C[C@@H](O)CC(=O)O[C@H]1C)C[C@H](O)[C@H]2C(=O)O` [AMPHOTERICIN B], the IC50 was determined as 0.1 µM in [1]; 0.4 µM in data set [2]; 0.1 µM in data set [3]; 0.1 µM in data set [4]; 5.3 µM in data set [6]. Besides, in data set [5], the “Ratio IC50” value was 76.
Consider `C=CCOc1cc(OC)c(C(=O)/C=C/c2ccc(OC)cc2)c(OCC=C)c1`, for which the IC50 in [1] is 5.5 µM; in [6], 18.7 µM. The “Ratio IC50” value in [5] is 3.4.
Take `C=CCOc1cc(OC)c(C(=O)/C=C/c2ccc(O)c(OC)c2)c(OCC=C)c1`: in data set [1], half-maximal inhibition (IC50) was put at 107 µM.
Consider `COc1cc(O)cc(O)c1C(=O)/C=C/C=C/c1ccccc1`, for which the IC50 in data set [1] was 52.6 µM.
Still for that read-out and setting: with `C=CCOc1cc(OC)c(C(=O)/C=C/c2ccncc2)c(OCC=C)c1` the figure was 0.6 µM.
For the compound `COc1ccc(/C=C/C(=O)c2c(O)cc(O)cc2OC)cc1`, the IC50 is 10 µM in data set [1]; 14.3 µM in data set [2]; 23 µM in [3]; 7.6 µM in [4]; 166 µM in data set [6]. The “Ratio IC50” value in data set [5] is on record as 16.6.
Turning to `COc1cc(O)cc(O)c1C(=O)/C=C/c1ccc(O)cc1` [HELICHRYSETIN], the IC50 came out at 15.7 µM in data set [1] and 21.7 µM in data set [6]. In [5], the “Ratio IC50” value came to 1.4.
In the case of `COc1cc(O)cc(O)c1C(=O)/C=C/c1ccc(C)cc1`, the IC50 in data set [1] was found to be 7.4 µM; in data set [6], 16.5 µM. Moreover, in data set [5], the “Ratio IC50” value is on record as 2.2.
For the compound `COc1cc(/C=C/C(=O)c2c(O)cc(O)cc2OC)cc(OC)c1OC`, in data set [1], the IC50 stood at 9.7 µM.
On to `COc1cc(O)cc(O)c1C(=O)/C=C/c1ccco1`, for which the IC50 in data set [1] worked out at 4.6 µM; in data set [2] it was 16.9 µM; in data set [3], 34.2 µM; in data set [4] it was 30.4 µM; in data set [6] it was 384 µM. The “Ratio IC50” value in data set [5] amounted to 83.5.
In the case of `C=CCOc1cc(OC)c(C(=O)/C=C/c2ccc([N+](=O)[O-])cc2)c(OCC=C)c1`, the figures for the IC50 in data set [1] and in data set [6] were 8.3 µM and 13.2 µM, respectively. Besides, in data set [5], the “Ratio IC50” value is recorded as 1.6.
For `C=CCOc1cc(OC)c(C(=O)/C=C/c2cc(OC)c(OC)c(OC)c2)c(OCC=C)c1` the same measures were 8.2 µM, 12 µM and 1.5.
Take `COc1cc(O)cc(O)c1C(=O)/C=C/c1ccc(C(F)(F)F)cc1`: the results for the IC50 in [1] and in data set [6] were 8.6 µM and 17.1 µM, respectively. For the same compound, in [5], the “Ratio IC50” value is reported as 2.
On to `COc1ccc(/C=C/C(=O)c2c(O)cc(OC)cc2OC)cc1` [FLAVOKAWAIN A], for which half-maximal inhibition in [1] (IC50) was put at 17.2 µM.
As for `C=CCOc1cc(OC)c(C(=O)/C=C/c2cccc(OC)c2)c(OCC=C)c1`, the IC50 was found to be 8.7 µM in data set [1] and 13.1 µM in data set [6]. In addition, the “Ratio IC50” value in [5] was 1.5.
As for `COc1cc(O)cc(O)c1C(=O)/C=C/c1ccc(Cl)cc1`, the IC50 is 11.2 µM in data set [1] and 19 µM in data set [6]. The “Ratio IC50” value in data set [5] was 1.7.
On the same counts, the results for `COc1cc(O)cc(O)c1C(=O)/C=C/c1ccccc1Br` are 10.6 µM, 14.6 µM and 1.4.
Regarding `C=CCOc1cc(OC)c(C(=O)/C=C/c2ccc(Cl)cc2)c(OCC=C)c1`, the IC50 was determined as 9.4 µM in data set [1] and 13 µM in [6]. Further, in data set [5], the “Ratio IC50” value was found to be 1.4.
With `C=CCOc1cc(OC)c(C(=O)/C=C/c2ccccc2F)c(OCC=C)c1`, the IC50 in data set [1] came out at 9.5 µM; in data set [6] it was 13.3 µM. Further, in data set [5], the “Ratio IC50” value amounted to 1.4.
In data set [1], `C=CCOc1cc(OC)c(C(=O)/C=C/c2ccc(C)cc2)c(OCC=C)c1` returned an IC50 of 79.8 µM.
Still for that read-out and setting: with `C=CCOc1cc(OC)c(C(=O)/C=C/c2ccc(O)cc2)c(OCC=C)c1` the figure was 85.2 µM.
As for `C=CCOc1cc(OC)c(C(=O)/C=C/c2ccc(F)cc2)c(OCC=C)c1`, the IC50 amounted to 9.5 µM in data set [1] and 13.8 µM in data set [6]. For the same compound, the “Ratio IC50” value in data set [5] amounted to 1.5.
In the case of `COc1cccc(/C=C/C(=O)c2c(O)cc(O)cc2OC)c1`, the IC50 in data set [1] was determined as 12 µM; in data set [6], 17.6 µM. Besides, in data set [5], the “Ratio IC50” value is recorded as 1.5.
Consider `COc1cc(O)cc(O)c1C(=O)/C=C/c1ccc2c(c1)OCO2`, for which the IC50 in [1] is 4.1 µM; in [2], 16.6 µM; in data set [3], 19.7 µM; in data set [4], 8.6 µM; in data set [6] it was 157 µM. Also, in data set [5], the “Ratio IC50” value stood at 38.3.
In turn, `COc1cc(/C=C/C(=O)c2c(O)cc(O)cc2OC)ccc1O` displayed an IC50 in data set [1] of 14.9 µM.
As for `COc1cc(O)cc(O)c1C(=O)/C=C/c1ccc(F)cc1`, the IC50 in data set [1] was determined as 11.8 µM; in [6], 28.8 µM. Moreover, the “Ratio IC50” value in data set [5] is listed as 2.4.
For `COc1cc(O)cc(O)c1C(=O)/C=C/c1ccccc1F` the same measures were 11.8 µM, 16 µM and 1.4.
Turning to `C=CCOc1cc(OC)c(C(=O)/C=C/c2ccc3c(c2)OCO3)c(OCC=C)c1`, in [1], the IC50 was determined as 6.6 µM.
With `C=CCOc1cc(OC)c(C(=O)/C=C/c2ccccc2Br)c(OCC=C)c1`, the results for the IC50 in data set [1] and in [6] were 7.9 µM and 5.4 µM, respectively. Further, in data set [5], the “Ratio IC50” value is 0.7.
In turn, `C=CCOc1cc(OC)c(C(=O)/C=C/c2ccc[nH]2)c(OCC=C)c1` had an IC50 in data set [1] of 94.3 µM.
Turning to `COc1ccc(/C=C/C(=O)c2c(O)cc(O)cc2OC)c(OC)c1`, the IC50 is 6.4 µM in data set [1], 28.5 µM in data set [2] and greater than 300 µM in data set [6]. Moreover, the “Ratio IC50” value in [5] was greater than 50.
For the compound `C=CCOc1cc(OC)c(C(=O)/C=C/C=C/c2ccccc2)c(OCC=C)c1`, the midpoint of inhibition in data set [1], the IC50, lay at 75.2 µM.
With `C=CCOc1cc(OC)c(C(=O)/C=C/c2ccccn2)c(OCC=C)c1`, the results for the Activity in data set [7] and in [8] were 3 mm and 25%, respectively. Besides, the IC50 was 1.1 µM in data set [1]; 0.9 µM in [2]; 4 µM in data set [3]; 1.4 µM in data set [4]; 12.5 µM in data set [6]. The “Ratio IC50” value in data set [5] is 11.4.
Turning to `C=CCOc1cc(/C=C/C(=O)c2c(O)cc(O)cc2OC)cc(OCC=C)c1Br`, the Activity in data set [7] was 3.1 mm; in [8], 8%; in data set [9], 9%. The IC50 in [1] turned out to be 1.1 µM; in [2] it was 4.1 µM; in data set [4] it was 14.4 µM; in data set [6], 11.5 µM. The “Ratio IC50” value in [5] is recorded as 10.5.
For the compound MEGLUMINE ANTIMONATE, the Activity in data set [10] was determined as 100%; in [11], 100%; in [12] it was 2.1 mm.
